# Measured values taken from patent publication US20240158392A1 (Janssen Biotech, Inc., priority 2021, published 2024).
# Molecular target: SIK2 (Homo sapiens, UniProt Q9H0K1)
# Test: SIK2 Enzymatic Assay High Version 2 (High ATP)
# Type: biochemical
# Details: enzyme 6 nM, 6 mM ATP and 400 μM HDAC5tide (each 2× final concentration); 30 minutes pre-incubation, 2 hours; ADP-Glo Max luminescence; read-out: SIK2 high ATP IC50 (μM) (Test Example 2)
# Summary of the method: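 At room temperature, enzyme (6 nM, 2× final) was preincubated with compound for 30 min, then 6 mM ATP and 400 μM HDAC5tide (both 2× final) were added for 2 h. ADP formed was measured by ADP-Glo Max (2 h reagent, 1 h detection) using luminescence.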
# Chain of SIK2 (Q9H0K1 whole entry, species assumed): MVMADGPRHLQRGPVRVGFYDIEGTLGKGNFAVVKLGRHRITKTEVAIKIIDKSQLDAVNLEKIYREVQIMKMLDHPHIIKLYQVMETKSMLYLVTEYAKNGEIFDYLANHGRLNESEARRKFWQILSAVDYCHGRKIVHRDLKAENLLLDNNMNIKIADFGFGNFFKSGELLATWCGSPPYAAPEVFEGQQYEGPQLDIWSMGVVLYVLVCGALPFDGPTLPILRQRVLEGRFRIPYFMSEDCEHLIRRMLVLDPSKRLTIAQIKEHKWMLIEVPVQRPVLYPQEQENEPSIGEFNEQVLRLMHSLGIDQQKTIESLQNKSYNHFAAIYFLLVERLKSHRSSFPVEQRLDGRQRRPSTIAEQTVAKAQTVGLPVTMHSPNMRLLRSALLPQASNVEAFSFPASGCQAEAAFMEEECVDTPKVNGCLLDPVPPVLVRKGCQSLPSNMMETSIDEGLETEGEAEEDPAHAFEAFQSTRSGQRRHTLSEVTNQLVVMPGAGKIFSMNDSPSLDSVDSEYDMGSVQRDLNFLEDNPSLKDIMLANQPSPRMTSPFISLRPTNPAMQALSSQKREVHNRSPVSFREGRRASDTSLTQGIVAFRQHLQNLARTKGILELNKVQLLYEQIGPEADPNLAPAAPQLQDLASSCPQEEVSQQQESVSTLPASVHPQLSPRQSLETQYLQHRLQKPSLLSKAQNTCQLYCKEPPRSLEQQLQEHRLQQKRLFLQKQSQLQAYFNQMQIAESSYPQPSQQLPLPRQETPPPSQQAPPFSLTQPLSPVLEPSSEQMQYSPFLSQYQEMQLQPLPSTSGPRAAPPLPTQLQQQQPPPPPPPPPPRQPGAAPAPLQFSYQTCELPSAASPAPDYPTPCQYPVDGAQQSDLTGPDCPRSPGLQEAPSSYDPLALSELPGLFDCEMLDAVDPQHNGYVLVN
row,IC50 [µM],Compound
1,0.0056,"CC(C)(C#N)COc1cnc(OC(F)F)cc1-c1ccn2nc(Nc3cnccn3)cc2c1 [Example 707, 3-[[6-(difluoromethoxy)-4-[2-(pyrazin-2-ylamino)pyrazolo[1,5-a]pyridin-5-yl]-3-pyridyl]oxy]-2,2-dimethyl-propanenitrile]"
2,0.00591,"CC(C)(C#N)COc1cnc(OC(F)F)cc1-c1ccn2nc(Nc3cccnn3)cc2c1 [Example 708, 3-[[6-(difluoromethoxy)-4-[2-(pyridazin-3-ylamino)pyrazolo[1,5-a]pyridin-5-yl]-3-pyridyl]oxy]-2,2-dimethyl-propanenitrile]"
3,0.00302,"Cc1cnc(Nc2cc3cc(-c4cc(OC(F)F)ncc4OCC(C)(C)C#N)ccn3n2)cn1 [Example 709, 3-[[6-(difluoromethoxy)-4-[2-[(5-methylpyrazin-2-yl)amino]pyrazolo[1,5-a]pyridin-5-yl]-3-pyridyl]oxy]-2,2-dimethyl-propanenitrile]"
4,0.0094,"Cc1cc(Nc2cc3cc(-c4cc(OC(F)F)ncc4OCC(C)(C)C#N)ccn3n2)nc(N2CCOCC2)n1 [Example 710, 3-[[6-(difluoromethoxy)-4-[2-[(6-methyl-2-morpholino-pyrimidin-4-yl)amino]pyrazolo[1,5-a]pyridin-5-yl]-3-pyridyl]oxy]-2,2-dimethyl-propanenitrile]"
5,0.01,"Cc1ccc(Nc2cc3cc(-c4cc(OC(F)F)ncc4OCC(C)(C)C#N)ccn3n2)nn1 [Example 711, 3-[[6-(difluoromethoxy)-4-[2-[(6-methylpyridazin-3-yl)amino]pyrazolo[1,5-a]pyridin-5-yl]-3-pyridyl]oxy]-2,2-dimethyl-propanenitrile]"
6,0.00411,"CC(C)(C#N)COc1cnc(OC(F)F)cc1-c1ccn2nc(Nc3ccc(C(C)(C)O)nn3)cc2c1 [Example 712, 3-[[6-(difluoromethoxy)-4-[2-[[6-(1-hydroxy-1-methyl-ethyl)pyridazin-3-yl]amino]pyrazolo[1,5-a]pyridin-5-yl]-3-pyridyl]oxy]-2,2-dimethyl-propanenitrile]"
7,0.00746,"CC(C)(C#N)COc1cnc(OC(F)F)cc1-c1ccn2nc(Nc3cnc(C(C)(C)O)cn3)cc2c1 [Example 713, 3-[[6-(difluoromethoxy)-4-[2-[[5-(1-hydroxy-1-methyl-ethyl)pyrazin-2-yl]amino]pyrazolo[1,5-a]pyridin-5-yl]-3-pyridyl]oxy]-2,2-dimethyl-propanenitrile]"
8,0.00617,"Cn1ccc(Nc2cc3cc(-c4cc(OC(F)F)ncc4OCC(C)(C)C#N)ccn3n2)n1 [Example 714, 3-[[6-(difluoromethoxy)-4-[2-[(1-methylpyrazol-3-yl)amino]pyrazolo[1,5-a]pyridin-5-yl]-3-pyridyl]oxy]-2,2-dimethyl-propanenitrile]"
9,0.011,"CNC(=O)c1cc(C)nc(Nc2cc3cc(-c4cc(OC(F)F)ncc4OCC(C)(C)C#N)ccn3n2)c1 [Example 715, 2-[[5-[5-(2-cyano-2-methyl-propoxy)-2-(difluoromethoxy)-4-pyridyl]pyrazolo[1,5-a]pyridin-2-yl]amino]-N,6-dimethyl-pyridine-4-carboxamide]"
10,0.0118,"CC(C)(C#N)COc1cnc(OC(F)F)cc1-c1ccn2nc(Nc3cc4c(cn3)CNCC4)cc2c1 [Example 716, 3-[[6-(difluoromethoxy)-4-[2-(5,6,7,8-tetrahydro-2,7-naphthyridin-3-ylamino)pyrazolo[1,5-a]pyridin-5-yl]-3-pyridyl]oxy]-2,2-dimethyl-propanenitrile]"
11,0.00142,"Cc1nccc(Nc2cc3cc(-c4cc(OC(F)F)ncc4OCC(C)(C)C#N)ccn3n2)n1 [Example 717, 3-[[6-(difluoromethoxy)-4-[2-[(2-methylpyrimidin-4-yl)amino]pyrazolo[1,5-a]pyridin-5-yl]-3-pyridyl]oxy]-2,2-dimethyl-propanenitrile]"
12,0.0182,"CC(C)(C#N)COc1cnc(OC(F)F)cc1-c1ccn2nc(Nc3cc4c(cn3)CCNC4)cc2c1 [Example 718, 3-[[6-(difluoromethoxy)-4-[2-(5,6,7,8-tetrahydro-2,6-naphthyridin-3-ylamino)pyrazolo[1,5-a]pyridin-5-yl]-3-pyridyl]oxy]-2,2-dimethyl-propanenitrile]"
13,0.0216,"CC(C)(C#N)COc1cnc(OC(F)F)cc1-c1ccn2nc(Nc3ccc4c(n3)CNCC4)cc2c1 [Example 719, 3-[[6-(difluoromethoxy)-4-[2-(5,6,7,8-tetrahydro-1,7-naphthyridin-2-ylamino)pyrazolo[1,5-a]pyridin-5-yl]-3-pyridyl]oxy]-2,2-dimethyl-propanenitrile]"
14,0.00954,"Cc1cc(Nc2cc3cc(-c4cc(OC(F)F)ncc4OCC4(C#N)CC4)ccn3n2)nc(C)n1 [Example 720, 1-[[6-(difluoromethoxy)-4-[2-[(2,6-dimethylpyrimidin-4-yl)amino]pyrazolo[1,5-a]pyridin-5-yl]-3-pyridyl]oxymethyl]cyclopropanecarbonitrile]"
15,0.01,"Cc1cc(-c2ccn3nc(Nc4cc(C)nc(C)n4)cc3c2)c(OCCC2(C#N)COC2)cn1 [Example 722, 3-[2-[[4-[2-[(2,6-dimethylpyrimidin-4-yl)amino]pyrazolo[1,5-a]pyridin-5-yl]-6-methyl-3-pyridyl]oxy]ethyl]oxetane-3-carbonitrile]"
16,0.00163,"O=C(Nc1cc2cc(-c3cc(OC(F)F)ncc3O[C@H]3CC[C@H](O)CC3)ccn2n1)C1CC1 [Example 723, N-[5-[2-(difluoromethoxy)-5-(4-hydroxycyclohexoxy)-4-pyridyl]pyrazolo[1,5-a]pyridin-2-yl]cyclopropanecarboxamide]"
17,0.0155,"CC(C)(C#N)COc1cnc(OCC#N)cc1-c1ccn2nc(NC(=O)C3CC3)cc2c1 [Example 724, N-[5-[2-(cyanomethoxy)-5-(2-cyano-2-methyl-propoxy)-4-pyridyl]pyrazolo[1,5-a]pyridin-2-yl]cyclopropanecarboxamide]"
18,0.00405,"CNc1nc(C)cc(Nc2cc3cc(-c4cc(OCC(F)F)ncc4OCC(C)(C)C#N)ccn3n2)n1 [Example 725, 3-[[6-(2,2-difluoroethoxy)-4-[2-[[6-methyl-2-(methylamino)pyrimidin-4-yl]amino]pyrazolo[1,5-a]pyridin-5-yl]-3-pyridyl]oxy]-2,2-dimethyl-propanenitrile]"
19,0.0152,"Cc1cc(Nc2cc3cc(-c4cc(OC(F)F)ncc4OCC(C)(C)C(N)=O)ccn3n2)nc(C)n1 [Example 727, 3-[[6-(difluoromethoxy)-4-[2-[(2,6-dimethylpyrimidin-4-yl)amino]pyrazolo[1,5-a]pyridin-5-yl]-3-pyridyl]oxy]-2,2-dimethyl-propanamide]"
20,0.0049,"Cc1cc(Nc2cc3cc(-c4cc(OC(F)F)ncc4OCC(C)(C)C(=O)N(C)C)ccn3n2)nc(C)n1 [Example 728, 3-[[6-(difluoromethoxy)-4-[2-[(2,6-dimethylpyrimidin-4-yl)amino]pyrazolo[1,5-a]pyridin-5-yl]-3-pyridyl]oxy]-N,N,2,2-tetramethyl-propanamide]"
21,0.0154,"Cc1cc(Nc2cc3cc(-c4cc(OCC(F)F)ncc4OCC(C)(C)C#N)ccn3n2)nn(C2CC2)c1=O [Example 730, 3-[[4-[2-[(1-cyclopropyl-5-methyl-6-oxo-pyridazin-3-yl)amino]pyrazolo[1,5-a]pyridin-5-yl]-6-(2,2-difluoroethoxy)-3-pyridyl]oxy]-2,2-dimethyl-propanenitrile]"
22,0.00911,"Cc1cc(Nc2cc3cc(-c4cc(OC(F)F)ncc4OCC(C)(C)C(=O)N(C)C)ccn3n2)nc(C)n1 [Example 735, 3-[[6-(difluoromethoxy)-4-[2-[(2,6-dimethylpyrimidin-4-yl)amino]pyrazolo[1,5-a]pyridin-5-yl]-3-pyridyl]oxy]-N,N,2,2-tetramethyl-propanamide]"
23,0.014,"Cc1cc(Nc2cc3cc(-c4cc(OCC(F)F)ncc4OCC(C)(C)C#N)ccn3n2)nn(C2CC2)c1=O [Example 737, 3-((4-(2-((1-cyclopropyl-5-methyl-6-oxo-1,6-dihydropyridazin-3-yl)amino)pyrazolo[1,5-a]pyridin-5-yl)-6-(2,2-difluoroethoxy)pyridin-3-yl)oxy)-2,2-dimethylpropanenitrile]"
24,0.071,"Cc1cc(Nc2cc3cc(-c4cc(OC(F)(F)F)ccc4OCC(C)(C)C#N)ccn3n2)nc(C)n1 [Example 754, 3-[2-[2-[(2,6-dimethylpyrimidin-4-yl)amino]pyrazolo[1,5-a]pyridin-5-yl]-4-(trifluoromethoxy)phenoxy]-2,2-dimethyl-propanenitrile]"

row,Compound,IC50 [µM]
1,"(*S)-4-[[6-(difluoromethoxy)-4-[2-[(2,6-dimethylpyrimidin-4-yl)amino]pyrazolo[1,5-a]pyridin-5-yl]-3-pyridyl]oxymethyl]-1,5,5-trimethyl-pyrrolidin-2-one [Example 734]",0.00307
2,"(*S)-4-[[6-(difluoromethoxy)-4-[2-[(2,6-dimethylpyrimidin-4-yl)amino]pyrazolo[1,5-a]pyridin-5-yl]-3-pyridyl]oxymethyl]-1,5,5-trimethyl-pyrrolidin-2-one [Example 741]",0.00266
3,"N-[5-[2-cyano-5-[[(1R,5S,7s)-9-methyl-3-oxa-9-azabicyclo[3.3.1]nonan-7-yl]oxy]-4-pyridyl]pyrazolo[1,5-a]pyridin-2-yl]cyclopropanecarboxamide [Example 656]",0.132
